The results in this text go back to patent US9200082B2, “Methods and compositions involving fibrillizing polypeptides for nanofibers” (The University of Chicago, priority 2013, dated 2015).

The test system of one test is C57BL/6 mice. Nature of the test: Immunization, anti-GFP Ig isotyping ELISA. The test is classed as in vivo. To be noted: after primary and booster immunizations, serum week 7. On the procedure: Q11 microgels bearing βTail-GFP or βTail-cut were prepared as described above, except the materials were incubated at 4 deg C., rather than room temperature. GFP content in the microgels was analyzed fluorimetrically as described above, and the concentration of GFP in the microgels was used as the basis for βTail-GFP dose in the PBS group. Similarly, cutinase content in the microgels was analyzed with the μABCA assay kit (Pierce), according to the manufacturer's instructions, and βTail-cut dose in the microgels was used as the basis for βTail-cut dose in PBS group. Endotoxin content of all vaccines was analyzed with the Limulus Amoebocyte Lysate assay kit (Lonza) according to the manufacturer's instructions immediately before immunization, and all materials were below the upper limit of 1 EU/mL. Female C57BL/6 mice (6-8 weeks old, Taconic Farms, Ind.) were each given two 50 μL subcutaneous injections near the shoulder blades for each primary and booster immunization, similar to previously reported methods (Hudalla 2013). […]
For all isotyping ELISAs, following overnight coating with 1 μg/mL βTmutant-GFP in PBS or PBS, all plates were washed 3 times with 0.5% Tween-20 in PBS. […] Absorbance was then measured at 450 nm with a SpectraMax M5 plate reader.
Background: In an ELISA, binding on a coated surface is turned into a signal by an enzyme label.

Another test concerns Q11 microgels. As to the kind of experiment: Q11 microgel fluorescence microscopy. The method, then: Lyophilized Q11 was dissolved in deionized water at a final concentration of 10 mM by vortexing for 5 min. Aqueous Q11 solutions were diluted 10-fold with 1×PBS containing GFP (Vector Labs cat# MB-0752), βTmutant-GFP, or one or more βTail fusion proteins at a total protein concentration between 0.25-1.5 μM, or tryptophan-terminated βTail (W-βTail) at a concentration between 10-100 μM. These solutions were then incubated under static conditions for nanofiber assembly, or on a LabNet Rocker 35 rocker table (speed setting 4) (New Jersey) to induce microgel formation.
Q11 microgel fluorescence was analyzed using a Zeiss Axioscope inverted epifluorescent microscope. Dapi filters were used to visualize βTail-GFPuv; FITC filters were used to visualize βTail-eGFP; and TRITC filters were used to visualize βTail-dsRED. Fluorescence emission of any protein with the inappropriate filter (e.g. βTail-GFPuv with FITC) was negligible (FIG. 5). Due to differences in the quantum efficiency of each protein, exposure time was adjusted until the grayscale image intensity of microgels containing 0.33 μM βTail-GFP, βTail-eGFP, or βTail-dsRED alone was similar (e.g. 0.75 sec for βTail-GFP, 1.5 sec for βTail-eGFP, and 2.5 sec for βTail-dsRED). […]

Regarding “βTail-GFP: recombinant fusion of βTail, Gly-Ser linker, GFPuv and His6 expressed in E. coli; SEQ ID NO. 65”, the “serum Ig isotype profile” value in the test on C57BL/6 mice is reported as “a more balanced IgM/IgG1 isotype profile”. Also, the “fluorescence (activity) after integration into Q11 nanofibers” value in the test with Q11 microgels is listed as “fluorescence was not perturbed when integrated into Q11 nanofibers”.
